The source of these data is patent US8895585B2, “Nicotinamide derivative or salt thereof” (FUJIFILM Corporation, priority 2010, dated 2014).

SMILES strings stand for the structures. Read-outs that look alike come from different tables or passages of the source.

In experiment [1] the target is T1, glutathione S-transferase (GST)-fused full-length human Syk protein (Homo sapiens, UniProt P43405).
T1 construct: (GST)-fused full-length human Syk protein; GST (glutathione S-transferase); purchased Carna Biosciences
Put plainly: Syk enzyme assay. The class given is biochemical. The following applies: Syk enzyme assay, Test Example 1; read-out: IC50 of Syk-inhibitory activity. The method in brief:
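GST-tagged full-length human Syk (baculovirus) preincubated with compound 15 min at room temperature (pH 7.0, 10 mM MgCl2), then reacted 40 min with 0.4 μM biotinylated peptide substrate and 27 μM ATP (final). Phosphorylation read by HTRF (615/665 nm) after EDTA stop; IC50 reported.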

For experiment [2], the system named is THP-1 cells. As to the kind of experiment: TNFα generation assay. It counts as cell-based, human. The following applies: Homo sapiens. On the procedure:
THP-1 cells (2×10^5 cells/ml), which were human monocytoid cells, were cultured in the presence of 10 ng/ml IFN-γ (Roche) for 2 days, so that the cells were induced to differentiate into macrophage-like cells. The differentiation-induced THP-1 cells were recovered, and the cells (1×10^6 cell/ml) were then allowed to react with a predetermined concentration of test compound at room temperature for 30 minutes. On the other hand, 100 μl of human IgG (10 μg/ml, SIGMA-ALDRICH) diluted with PBS was added to a 96-well plate, and it was then incubated at room temperature overnight. Thereafter, the resultant was washed with PBS twice to produce a human IgG-coated plate. Subsequently, a cell solution that contained a compound was inoculated on the human IgG-coated plate (5×10^4 cells/well), and it was then cultured for 7 hours. Thereafter, the cultured solution was recovered, and the amount of TNFα secreted into the culture solution was then measured by the ELISA method (Roche/R & D Systems) or the AlphaLISA method (PerkinElmer).

[3] abbreviates: THP-1, THP-1 cells, Table 22, read-out: IC50 in TNFα generation assay.
Setting [4] is: THP-1, 7 h, IFN-γ-differentiated THP-1 cells on human IgG-coated plate, cultured 7 hours, read-out: TNFα generation inhibitory activity (IC50).

Take `Cn1cc2cc(Nc3nc(NC4CCCCC4N)c(F)cc3C(N)=O)ccc2n1` (stereo not shown) [Example 002-041]: the results for the IC50 in experiment [1] and in experiment [2] (setting [3]) were below 10 nM and 65 to 130 nM, respectively.
Consider `CC[C@@H](Nc1nc(Nc2ccc3c(c2)c(C2CC2)nn3CC)c(C(N)=O)cc1F)[C@H](C)N` [Example 006-551, 6-(((2S,3R)-2-aminopentan-3-yl)amino)-2-((3-cyclopropyl-1-ethyl-1H-indazol-5-yl)amino)-5-fluoronicotinamide], for which the IC50 is below 10 nM in experiment [1] and 130 to 200 nM in experiment [2] (setting [3]).
The corresponding values for `CCn1nc(C)c2ccc(Nc3nc(N[C@H](CC4CC4)[C@H](C)N)c(F)cc3C(N)=O)cc21` [Example 006-486, 6-(((2R,3S)-3-amino-1-cyclopropylbutan-2-yl)amino)-2-((1-ethyl-3-methyl-1H-indazol-6-yl)amino)-5-fluoronicotinamide] are below 10 nM and 130 to 200 nM.
The corresponding values for `CCCC[C@@H](Nc1nc(Nc2ccc3c(cnn3CCF)c2)c(C(N)=O)cc1F)[C@H](C)N` [Example 006-418, 6-(((2S,3R)-2-aminoheptan-3-yl)amino)-5-fluoro-2-((1-(2-fluoroethyl)-1H-indazol-5-yl)amino)nicotinamide] are below 10 nM and 65 to 130 nM.
Taken in the same sequence, the figures for `CC[C@@H](Nc1nc(Nc2ccc3c(c2)c(-n2cccn2)nn3C)c(C(N)=O)cc1F)[C@H](C)N` [Example 006-596, 6-(((2S,3R)-2-aminopentan-3-yl)amino)-5-fluoro-2-((1-methyl-3-(1H-pyrazol-1-yl)-1H-indazol-5-yl)amino)nicotinamide] were below 10 nM and 65 to 130 nM.
Turning to `Cc1nn(CCF)c2cc(Nc3nc(N[C@H](CC4CC4)[C@H](C)N)c(F)cc3C(N)=O)ccc12` [Example 006-488, 6-(((2R,3S)-3-amino-1-cyclopropylbutan-2-yl)amino)-5-fluoro-2-((1-(2-fluoroethyl)-3-methyl-1H-indazol-6-yl)amino)nicotinamide], the IC50 in experiment [1] is below 10 nM; in experiment [2] (setting [3]), 65 to 130 nM.
Take `COc1ccc2cc(Nc3nc(N[C@@H](CN)CC4CC4)c(F)cc3C(N)=O)cnc2c1` [Example 006-215, (R)-6-((1-amino-3-cyclopropylpropan-2-yl)amino)-5-fluoro-2-((7-methoxyquinolin-3-yl)amino)nicotinamide]: the IC50 was below 10 nM in experiment [1] and 65 to 130 nM in experiment [2] (setting [3]).
Turning to `CC[C@@H](Nc1nc(Nc2cncc(-c3ccc(OC)cc3)c2)c(C(N)=O)cc1F)[C@H](C)N` [Example 006-277, 6-(((2S,3R)-2-aminopentan-3-yl)amino)-5-fluoro-2-((5-(4-methoxyphenyl)pyridin-3-yl)amino)nicotinamide], the values for the IC50 in experiment [1] and in experiment [2] (setting [3]) were below 10 nM and 65 to 130 nM, respectively.
`NC(=O)c1cc(F)c(N[C@@H]2CCCC[C@@H]2N)nc1Nc1cncc2ccccc12` [Example 37-2, 6-((1R,2S)-2-aminocyclohexylamino)-5-fluoro-2-((isoquinolin-4-yl)amino)nicotinamide]: the values for the IC50 in experiment [1] and in experiment [2] (setting [3]) were below 10 nM and below 65 nM, respectively.
On to `C=C(C)C[C@@H](Nc1nc(Nc2ccc3ncccc3c2)c(C(N)=O)cc1F)[C@H](C)N` [Example 006-396, 6-(((2S,3R)-2-amino-5-methylhex-5-en-3-yl)amino)-5-fluoro-2-(quinolin-6-ylamino)nicotinamide], for which the IC50 in experiment [1] was below 10 nM; in experiment [2] (setting [3]), 65 to 130 nM.
The corresponding values for `NC(=O)c1cc(F)c(N[C@@H]2CCCC[C@@H]2N)nc1Nc1cnc(-n2cccn2)c(Cl)c1` [Example 006-446, 6-(((1R,2S)-2-aminocyclohexyl)amino)-2-((5-chloro-6-(1H-pyrazol-1-yl)pyridin-3-yl)amino)-5-fluoronicotinamide] are 10 to 50 nM and 130 to 200 nM.
The corresponding values for `COc1cc(Nc2nc(N[C@H](C3CC3)[C@H](C)N)c(F)cc2C(N)=O)ccn1` [Example 006-430, 6-(((1R,2S)-2-amino-1-cyclopropylpropyl)amino)-5-fluoro-2-((2-methoxypyridin-4-yl)amino)nicotinamide] are below 10 nM and 65 to 130 nM.
The corresponding values for `NC(=O)c1cc(F)c(NC2CCCCC2N)nc1Nc1cncc2ccccc12` (stereo not shown) [Example 010-001] are below 10 nM and below 65 nM.
As to `CCc1nn(C)c2ccc(Nc3nc(N[C@H](C4CC4)[C@H](C)N)c(F)cc3C(N)=O)cc12` [Example 006-578, 6-(((1R,2S)-2-amino-1-cyclopropylpropyl)amino)-2-((3-ethyl-1-methyl-1H-indazol-5-yl)amino)-5-fluoronicotinamide], the IC50 was below 10 nM in experiment [1] and 65 to 130 nM in experiment [2] (setting [3]).
Taken in the same sequence, the figures for `CC[C@@H](Nc1nc(Nc2ccc3c(c2)c(C)nn3C)c(C(N)=O)cc1F)[C@H](C)N` [Example 006-524, 6-(((2S,3R)-2-aminopentan-3-yl)amino)-2-((1,3-dimethyl-1H-indazol-5-yl)amino)-5-fluoronicotinamide] were below 10 nM and below 65 nM.
With `CCC[C@@H](Nc1nc(Nc2ccnc(OCCOC)c2)c(C(N)=O)cc1F)[C@H](C)N` [Example 006-310, 6-(((2S,3R)-2-aminohexan-3-yl)amino)-5-fluoro-2-((2-(2-methoxyethoxy)pyridin-4-yl)amino)nicotinamide], the figures for the IC50 in experiment [1] and in experiment [2] (setting [3]) were below 10 nM and 65 to 130 nM, respectively.
Taken in the same sequence, the figures for `CCC[C@@H](Nc1nc(Nc2cncc(C)c2)c(C(N)=O)cc1F)[C@H](C)N` [Example 006-312, 6-(((2S,3R)-2-aminohexan-3-yl)amino)-5-fluoro-2-((5-methylpyridin-3-yl)amino)nicotinamide] were below 10 nM and 65 to 130 nM.
With `C[C@H](N)[C@@H](CC1CC1)Nc1nc(Nc2ccc3c(cnn3C)c2)c(C(N)=O)cc1F` [Example 006-345, 6-(((2R,3S)-3-amino-1-cyclopropylbutan-2-yl)amino)-5-fluoro-2-((1-methyl-1H-indazol-5-yl)amino)nicotinamide], the IC50 is below 10 nM in experiment [1] and 65 to 130 nM in experiment [2] (setting [3]).
For the compound `COCCn1ncc2cc(Nc3nc(N[C@H](CC4CC4)[C@H](C)N)c(F)cc3C(N)=O)ccc21` [Example 006-343, 6-(((2R,3S)-3-amino-1-cyclopropylbutan-2-yl)amino)-5-fluoro-2-((1-(2-methoxyethyl)-1H-indazol-5-yl)amino)nicotinamide], the IC50 in experiment [1] is below 10 nM; in experiment [2] (setting [3]), 65 to 130 nM.
Consider `NC(=O)c1cc(F)c(N[C@@H]2CCCC[C@@H]2N)nc1Nc1cncc(-c2ccccc2)c1` (relative stereo) [Example 2-1, 6-(cis-2-aminocyclohexylamino)-5-fluoro-2-((5-phenylpyridin-3-yl)amino)nicotinamide], for which the IC50 in experiment [2] (setting [4]) is at most 200 nM.
As for `NC(=O)c1cc(F)c(N[C@@H]2CCCC[C@@H]2N)nc1Nc1ccc2nsnc2c1` (relative stereo) [Example 6-34, 6-(cis-2-aminocyclohexylamino)-2-((benzo[c][1,2,5]thiadiazol-5-yl)amino)-5-fluoronicotinamide], the IC50 in experiment [2] (setting [4]) was at most 200 nM.
On the same count and under the same terms, next, `Cn1cnc2cc(Nc3nc(N[C@@H]4CCCC[C@@H]4N)c(F)cc3C(N)=O)ccc21` (relative stereo) [Example 6-65, 6-(cis-2-aminocyclohexylamino)-5-fluoro-2-((1-methyl-1H-benzo[d]imidazol-5-yl)amino)nicotinamide]: at most 200 nM.
Take `NC(=O)c1cc(F)c(N[C@@H]2CCCC[C@@H]2N)nc1Nc1cncc(-n2nccn2)c1` (relative stereo) [Example 4-42, 6-(cis-2-aminocyclohexylamino)-5-fluoro-2-((5-(2H-1,2,3-triazol-2-yl)pyridin-3-yl)amino)nicotinamide]: in experiment [2] (setting [4]), the IC50 is at most 200 nM.
For the compound `NC(=O)c1cc(F)c(N[C@@H]2CCCC[C@@H]2N)nc1Nc1ccc2ncsc2c1` (relative stereo) [Example 6-35, 6-(cis-2-aminocyclohexylamino)-2-((benzo[d]thiazol-6-yl)amino)-5-fluoronicotinamide], the IC50 in experiment [2] (setting [4]) is at most 200 nM.
On to `Cc1ccc2cc(Nc3nc(N[C@@H]4CCCC[C@@H]4N)c(F)cc3C(N)=O)ccc2n1` (relative stereo) [Example 6-70, 6-(cis-2-aminocyclohexylamino)-5-fluoro-2-((2-methylquinolin-6-yl)amino)nicotinamide], for which the IC50 in experiment [2] (setting [4]) was at most 200 nM.
As for `NC(=O)c1cc(F)c(N[C@@H]2CCCC[C@@H]2N)nc1Nc1ccnc2c1ccn2CCN1CCOCC1` (relative stereo) [Example 4-25, 6-(cis-2-aminocyclohexylamino)-5-fluoro-2-((1-(2-(morpholin-4-yl)ethyl)-1H-pyrrolo[2,3-b]pyridin-4-yl)amino)nicotinamide], the IC50 in experiment [2] (setting [4]) is at most 200 nM.
In the case of `NC(=O)c1cc(F)c(N[C@@H]2CCCC[C@@H]2N)nc1Nc1ccnc2c1ccn2CCN1CCCC1` [Example 004-023], the IC50 in experiment [2] (setting [3]) was in the range of 65 to 130 nM.
